Results on ten compounds are retold here after ChEMBL document CHEMBL1145677, “In Vitro Action of ent -Manoyl Oxides against Leishmania donovani” (1997).

Holding throughout (format): functional
Test [1] relates to Leishmania donovani. Briefly: Antileishmanial activity against Leishmania donovani LCR-L133 promastigotes at 100 […] after 72 hrs relative to control.
In test [2] the test system is Leishmania donovani. Briefly: Antileishmanial activity against Leishmania donovani LCR-L133 amastigotes at 10 ug/ml after 72 hrs relative to control.
Test [3] concerns Leishmania donovani. Briefly: Antileishmanial activity against Leishmania donovani LCR-L133 promastigotes at 1 […] after 48 hrs relative to control.
Test [4] relates to Leishmania donovani. Briefly: Antileishmanial activity against Leishmania donovani LCR-L133 promastigotes at 10 […] after 24 hrs relative to control.
The test system of test [5] is Leishmania donovani. Briefly: Antileishmanial activity against Leishmania donovani LCR-L133 amastigotes at 10 ug/ml after 48 hrs relative to control.
Test [6] relates to Leishmania donovani. Briefly: Antileishmanial activity against Leishmania donovani LCR-L133 amastigotes at 1 ug/ml after 48 hrs relative to control.
Test [7] has as its system Leishmania donovani. Briefly: Antileishmanial activity against Leishmania donovani LCR-L133 promastigotes at 10 […] after 72 hrs relative to control.
The test system of test [8] is Leishmania donovani. Briefly: Antileishmanial activity against Leishmania donovani LCR-L133 promastigotes at 10 […] after 48 hrs relative to control.
Test [9] has as its system Leishmania donovani. Briefly: Antileishmanial activity against Leishmania donovani LCR-L133 amastigotes at 1 ug/ml after 72 hrs relative to control.
In test [10] the test system is Leishmania donovani. Briefly: Antileishmanial activity against Leishmania donovani LCR-L133 amastigotes at 1 ug/ml after 24 hrs relative to control.
Test [11] has as its system Leishmania donovani. Briefly: Antileishmanial activity against Leishmania donovani LCR-L133 amastigotes at 100 ug/ml after 48 hrs relative to control.
Test [12] relates to Leishmania donovani. Briefly: Antileishmanial activity against Leishmania donovani LCR-L133 amastigotes at 100 ug/ml after 24 hrs relative to control.
Test [13] deals with Leishmania donovani. Briefly: Antileishmanial activity against Leishmania donovani LCR-L133 promastigotes at 100 […] after 48 hrs relative to control.
The test system of test [14] is Leishmania donovani. Briefly: Antileishmanial activity against Leishmania donovani LCR-L133 amastigotes at 10 ug/ml after 24 hrs relative to control.
Test [15] deals with Leishmania donovani. Briefly: Antileishmanial activity against Leishmania donovani LCR-L133 promastigotes at 100 […] after 24 hrs relative to control.
Test [16] concerns Leishmania donovani. Briefly: Antileishmanial activity against Leishmania donovani LCR-L133 amastigotes at 100 ug/ml after 72 hrs relative to control.
The test system of test [17] is Leishmania donovani. Briefly: Antileishmanial activity against Leishmania donovani LCR-L133 promastigotes at 1 […] after 24 hrs relative to control.
Test [18] deals with Leishmania donovani. Briefly: Antileishmanial activity against Leishmania donovani LCR-L133 promastigotes at 1 […] after 72 hrs relative to control.

On to `C=C[C@]1(C)O[C@@]2(C)CC[C@@H]3C(C)(C)[C@@H](OC(C)=O)CC[C@@]3(C)C2=CC1=O`, for which the Activity amounted to 100% in the test with Leishmania donovani [1]; 34% in the test with Leishmania donovani [2]; 0% with Leishmania donovani [3]; 0% in the test with Leishmania donovani [4]; 21% in the test with Leishmania donovani [5]; 0% with Leishmania donovani [6]. The Activity is on record as 0% in the test with Leishmania donovani [7]; 0% in the test on Leishmania donovani [8]; 12% with Leishmania donovani [9]; 0% in the test with Leishmania donovani [10]; 45% in the test with Leishmania donovani [11]; 32% in the test on Leishmania donovani [12]. Further, the Activity stood at 100% with Leishmania donovani [13]; 12% with Leishmania donovani [14]; 100% in the test with Leishmania donovani [15]; 50% in the test with Leishmania donovani [16]; 0% in the test with Leishmania donovani [17]; 0% in the test on Leishmania donovani [18].

For MEGLUMINE ANTIMONATE, the Activity in the test on Leishmania donovani [1] stood at 76%; with Leishmania donovani [3] it was 20%; with Leishmania donovani [4], 28%; in the test on Leishmania donovani [7], 42%; with Leishmania donovani [8], 40%; in the test on Leishmania donovani [13] it was 74%. For the same compound, the Activity in the test with Leishmania donovani [15] stood at 70%; with Leishmania donovani [17], 4%; in the test on Leishmania donovani [18], 39%.

Regarding `C=C[C@]1(C)O[C@@]2(C)CC[C@@H]3C(C)(C)C(=O)CC[C@@]3(C)[C@@H]2CC1=O`, the Activity in the test on Leishmania donovani [1] came to 0%; with Leishmania donovani [2], 11%; in the test on Leishmania donovani [3] it was 0%; with Leishmania donovani [4], 0%; with Leishmania donovani [5], 7%; in the test on Leishmania donovani [6] it was 0%. Also, the Activity with Leishmania donovani [7] stood at 0%; in the test with Leishmania donovani [8], 0%; in the test on Leishmania donovani [9] it was 0%; in the test with Leishmania donovani [10], 0%; in the test with Leishmania donovani [11] it was 31%; in the test on Leishmania donovani [12], 22%. Besides, the Activity is 25% with Leishmania donovani [13]; 0% in the test with Leishmania donovani [14]; 0% in the test on Leishmania donovani [15]; 36% with Leishmania donovani [16]; 0% in the test with Leishmania donovani [17]; 0% with Leishmania donovani [18].

Take `C=C[C@@]1(C)CC[C@H]2[C@]3(C)CCC(=O)C(C)(C)[C@H]3CC[C@]2(C)O1`: the Activity in the test with Leishmania donovani [1] turned out to be 80%; with Leishmania donovani [2] it was 25%; in the test on Leishmania donovani [3], 0%; with Leishmania donovani [4], 0%; in the test with Leishmania donovani [5] it was 17%; in the test with Leishmania donovani [6], 10%. For the same compound, the Activity is listed as 0% in the test on Leishmania donovani [7]; 0% in the test on Leishmania donovani [8]; 10% in the test with Leishmania donovani [9]; 0% with Leishmania donovani [10]; 48% in the test with Leishmania donovani [11]; 20% in the test on Leishmania donovani [12]. In addition, the Activity with Leishmania donovani [13] is 86%; with Leishmania donovani [14] it was 7%; in the test with Leishmania donovani [15] it was 51%; with Leishmania donovani [16] it was 56%; with Leishmania donovani [17], 0%; in the test with Leishmania donovani [18], 0%.

With `C=C[C@@]1(C)CC[C@H]2[C@]3(C)CC[C@@H](O)C(C)(C)[C@H]3CC[C@]2(C)O1`, the Activity came to 52% with Leishmania donovani [1]; 18% in the test with Leishmania donovani [2]; 0% in the test with Leishmania donovani [3]; 0% in the test on Leishmania donovani [4]; 13% in the test with Leishmania donovani [5]; 7% with Leishmania donovani [6]. Also, the Activity in the test with Leishmania donovani [7] turned out to be 0%; in the test with Leishmania donovani [8], 0%; with Leishmania donovani [9], 0%; with Leishmania donovani [10] it was 0%; in the test on Leishmania donovani [11], 25%; with Leishmania donovani [12], 17%. Besides, the Activity in the test with Leishmania donovani [13] was found to be 70%; in the test with Leishmania donovani [14], 0%; in the test on Leishmania donovani [15], 27%; in the test with Leishmania donovani [16], 39%; in the test with Leishmania donovani [17], 0%; in the test with Leishmania donovani [18] it was 0%.

As to `C=C[C@]1(CO)CC[C@H]2[C@]3(C)CCC(=O)[C@](C)(C(=O)OC)[C@H]3CC[C@]2(C)O1`, the Activity in the test with Leishmania donovani [1] is 34%; in the test with Leishmania donovani [2], 0%; in the test on Leishmania donovani [3], 0%; with Leishmania donovani [4], 0%; in the test with Leishmania donovani [5] it was 0%; in the test with Leishmania donovani [6], 0%. The Activity was found to be 0% with Leishmania donovani [7]; 0% in the test with Leishmania donovani [8]; 0% in the test on Leishmania donovani [9]; 0% in the test on Leishmania donovani [10]; 14% in the test on Leishmania donovani [11]; 9% with Leishmania donovani [12]. The Activity in the test with Leishmania donovani [13] amounted to 22%; in the test with Leishmania donovani [14] it was 0%; with Leishmania donovani [15] it was 0%; in the test with Leishmania donovani [16], 19%; with Leishmania donovani [17] it was 0%; in the test with Leishmania donovani [18], 0%.

On to `C=C[C@@]1(C)CC[C@H]2[C@]3(C)CC[C@@H](O)C(C)(C)[C@H]3[C@@H](O)C[C@]2(C)O1`, for which the Activity in the test on Leishmania donovani [1] stood at 0%; in the test on Leishmania donovani [2] it was 33%; with Leishmania donovani [3], 0%; with Leishmania donovani [4], 0%; in the test on Leishmania donovani [5], 24%; in the test on Leishmania donovani [6], 0%. The Activity in the test with Leishmania donovani [7] is 0%; in the test with Leishmania donovani [8], 0%; in the test with Leishmania donovani [9] it was 14%; with Leishmania donovani [10] it was 0%; in the test on Leishmania donovani [11], 51%; in the test on Leishmania donovani [12], 34%. Besides, the Activity in the test with Leishmania donovani [13] is given as 52%; in the test on Leishmania donovani [14], 10%; with Leishmania donovani [15], 0%; in the test with Leishmania donovani [16], 67%; in the test on Leishmania donovani [17], 0%; in the test on Leishmania donovani [18], 0%.

Turning to `C=C[C@]1(C)O[C@@]2(C)CC[C@@H]3C(C)(C)[C@H](O)CC[C@@]3(C)[C@@H]2C[C@H]1O` [VARODIOL], the Activity came out at 0% in the test with Leishmania donovani [1]; 12% in the test with Leishmania donovani [2]; 0% with Leishmania donovani [3]; 0% in the test with Leishmania donovani [4]; 7% with Leishmania donovani [5]; 0% with Leishmania donovani [6]. In addition, the Activity in the test with Leishmania donovani [7] is 0%; with Leishmania donovani [8], 0%; with Leishmania donovani [9], 0%; with Leishmania donovani [10], 0%; in the test on Leishmania donovani [11] it was 29%; with Leishmania donovani [12], 12%. Also, the Activity in the test on Leishmania donovani [13] was 63%; in the test on Leishmania donovani [14], 0%; in the test on Leishmania donovani [15], 0%; in the test on Leishmania donovani [16] it was 33%; with Leishmania donovani [17], 0%; in the test on Leishmania donovani [18], 0%.

Consider `C=C[C@]1(C)O[C@@]2(C)C[C@H](O)[C@@H]3C(C)(C)[C@H](O)CC[C@@]3(C)[C@@H]2CC1=O`, for which the Activity in the test with Leishmania donovani [1], in the test with Leishmania donovani [2], with Leishmania donovani [3], in the test with Leishmania donovani [4], with Leishmania donovani [5] and with Leishmania donovani [6] was 0% in each case. Also, the Activity in the test with Leishmania donovani [7] is listed as 0%; in the test on Leishmania donovani [8], 0%; in the test with Leishmania donovani [9] it was 0%; with Leishmania donovani [10] it was 0%; in the test on Leishmania donovani [11], 15%; in the test with Leishmania donovani [12], 14%. Further, the Activity with Leishmania donovani [13] stood at 0%; in the test on Leishmania donovani [14] it was 0%; in the test on Leishmania donovani [15], 0%; in the test on Leishmania donovani [16] it was 19%; with Leishmania donovani [17], 0%; in the test on Leishmania donovani [18], 0%.

Consider `C=C[C@]1(C)O[C@@]2(C)C[C@H](O)[C@@H]3C(C)(C)[C@H](O)CC[C@@]3(C)[C@@H]2C[C@@H]1O`, for which the Activity came out at 0% with Leishmania donovani [1]; 16% in the test with Leishmania donovani [2]; 0% in the test with Leishmania donovani [3]; 0% in the test on Leishmania donovani [4]; 11% in the test with Leishmania donovani [5]; 0% in the test on Leishmania donovani [6]. The Activity with Leishmania donovani [7] was 0%; in the test on Leishmania donovani [8] it was 0%; with Leishmania donovani [9], 0%; in the test with Leishmania donovani [10], 0%; in the test on Leishmania donovani [11] it was 46%; in the test on Leishmania donovani [12], 35%. The Activity in the test on Leishmania donovani [13] stood at 0%; with Leishmania donovani [14], 7%; in the test with Leishmania donovani [15], 0%; with Leishmania donovani [16], 50%; with Leishmania donovani [17], 0%; with Leishmania donovani [18] it was 0%.
